According to US20250121099A1, “CLOSO-DODECAIODODECABORATE COMPLEXES AND METHODS OF USE FOR SAME” (The Regents of the University of California, priority 2022, published 2025):
“Also recorded” adds a separate entry of the source. Where two headings read alike, the source gives them in different places.

Experiments:
[1] = cited from earlier work
[2] = tested on: human red blood cells (RBCs); test: Hemolytic activity of Na2B12I12 (Hb release from RBCs); format: cell-based
Source text: General methods. Na2B12I12 was obtained from Katchem, γ-cyclodextrin (γ-CD) was obtained from Combi-Blocks, 2-hydroxypropyl-γ-cyclodextrin (HP-γ-CD; 0.6 functionalized, average Mw=1580 Da) was obtained from Sigma-Aldrich, phosphate-buffered saline (PBS) was obtained from Fisher Scientific. The reagents were used as received. D2O was obtained from Cambridge Isotopes. Washed single-donor human red blood cells (RBCs) were obtained from Innovative Research. These are RBCs that have been separated from type 0 positive whole blood and resuspended in Alsever's Solution. Defibrinated bovine blood was obtained from HemoStat Laboratories. All experiments were performed under ambient conditions. NMR spectra were collected using a Bruker Avance III HD 500 spectrometer equipped with a multinuclear Smart Probe. The frequencies of the ^1H and ^11B NMR signals are reported in ppm as chemical shifts from TMS and BF3·Et2O, respectively. Electronic absorption spectra were recorded on VWR UV-6300PC double beam spectrophotometer. Stability of Na2B12I12: refluxing PBS. A 500 μL aliquot of a 10 mM solution of Na2B12I12 in PBS (pH 7.4) was placed in an oil bath pre-heated to 100° C. After incubating in this bath for 1 h, the sample was removed, cooled to room temperature, and spiked with 50 μL D2O prior to acquiring a ^11B NMR spectrum. Stability of Na2B12I12: human RBCs. A 275 μL aliquot of a 20 mM solution of Na2B12I12 in PBS (pH 7.4) was added to a 225 μL suspension of human RBCs. The mixture was allowed to stand at room temperature for 24 h. It was then spiked with 50 μL D2O prior to acquiring a ^11B NMR spectrum. […] Stability of Na2B12I12: bovine serum. A 1 mL aliquot of defibrinated bovine blood was centrifuged for 15 s at 15,850×g. A 225 μL aliquot of the serum supernatant was combined with a 275 μL aliquot of a 20 mM solution of Na2B12I12 in PBS (pH 7.4). The mixture was allowed to stand at room temperature for 24 h. It was then spiked with 50 μL D2O prior to acquiring a ^11B NMR spectrum. Stability of Na2B12I12: bovine blood. A 225 μL aliquot of defibrinated bovine blood was combined with a 275 μL aliquot of a 20 mM solution of Na2B12I12 in PBS (pH 7.4). The mixture was allowed to stand at room temperature for 24 h. It was then spiked with 50 μL D2O prior to acquiring a ^11B NMR spectrum. Job plot of HP-γ-CD and Na2B12I12. Solutions of Na2B12I12 (20 mM) and […] (20 mM) were prepared in PBS (pH 7.4). […] Each sample was spiked with D2O and analyzed by ^11B NMR spectroscopy. […] The absorbance of this solution was measured from 700 to 350 nm. The subsequent samples were then measured in turn. […] The absorbance corresponding to 100% lysis was confirmed by adding a 10 μL aliquot of freshly resuspended RBCs to 250 μL of hemolysis buffer (0.15 M NH4Cl and 10 mM KHCO3). […]

[3] = Stability of Na2B12I12: refluxing PBS (11B NMR); format: physicochemical; conditions: refluxing in PBS pH 7.4 (100° C.) for 1 hour
Source text: (§1) General methods. Na2B12I12 was obtained from Katchem, γ-cyclodextrin (γ-CD) was obtained from Combi-Blocks, 2-hydroxypropyl-γ-cyclodextrin (HP-γ-CD; 0.6 functionalized, average Mw=1580 Da) was obtained from Sigma-Aldrich, phosphate-buffered saline (PBS) was obtained from Fisher Scientific. The reagents were used as received. D2O was obtained from Cambridge Isotopes. Washed single-donor human red blood cells (RBCs) were obtained from Innovative Research. These are RBCs that have been separated from type 0 positive whole blood and resuspended in Alsever's Solution. Defibrinated bovine blood was obtained from HemoStat Laboratories. All experiments were performed under ambient conditions. NMR spectra were collected using a Bruker Avance III HD 500 spectrometer equipped with a multinuclear Smart Probe. The frequencies of the ^1H and ^11B NMR signals are reported in ppm as chemical shifts from TMS and BF3·Et2O, respectively. Electronic absorption spectra were recorded on VWR UV-6300PC double beam spectrophotometer. […] Each sample was spiked with D2O and analyzed by ^11B NMR spectroscopy. […] The absorbance of this solution was measured from 700 to 350 nm. The subsequent samples were then measured in turn. […] The absorbance corresponding to 100% lysis was confirmed by adding a 10 μL aliquot of freshly resuspended RBCs to 250 μL of hemolysis buffer (0.15 M NH4Cl and 10 mM KHCO3). […]

[4] = Stability of Na2B12I12: human RBCs (11B NMR); format: in vitro ADME; conditions: 24-hour incubation at room temperature with suspension of human RBCs
Source text: as §1

[5] = Stability of Na2B12I12: bovine serum (11B NMR); format: in vitro ADME; conditions: 24-hour incubation at room temperature with bovine serum
Source text: as §1

[6] = Stability of Na2B12I12: bovine blood (11B NMR); format: in vitro ADME; conditions: 24-hour incubation at room temperature with defibrinated bovine blood
Source text: as §1

mice = conditions: cited from earlier work
cats = conditions: cited from earlier work

| Substance | chemical stability ([1]; heating to 85° C. in 5M NaOH) | chemical stability ([1]; heating to 150° C. in H2SO4) | chemical stability ([1]; treatment with Cl2 gas) | hemolysis ([2]; 100 mM Na2B12I12, no cyclodextrin, human RBCs) | concentrations at which hemolysis is not induced ([2]; Na2B12I12 alone) | concentration of PBS solutions that induce hemolysis ([2]; PBS) | IC50 ([2]; human RBCs in PBS pH 7.4, 10 s exposure, three replicates, read-out: IC50 (proportion of RBCs lysed, absorption of supernatant at 413 nm, logistic regression) (converted)) | stability (new 11B NMR signals) [3] | stability (new 11B NMR signals) [4] | stability (new 11B NMR signals) [5] | stability (new 11B NMR signals) [6] | toxicity (mice) | toxicity (cats) |
| --- | --- | --- | --- | --- | --- | --- | --- | --- | --- | --- | --- | --- | --- |
| closo-dodecaiodododecaborate [B12I12^2−] | unchanged | unchanged | unchanged | – | – | – | – | – | – | – | – | – | – |
| closo-dodecaiodododecaborate sodium [Na2B12I12] | – | – | – | rapid hemolysis; also recorded: complete hemolysis | below 6 mM | greater than 50 mM | 66.3 mM | lack of new ^11B NMR signals | no additional signals appear; also recorded: absence of new signals | no additional signals appear; also recorded: absence of new signals | no additional signals appear; also recorded: absence of new signals | toxic | toxic |
